{
  "source": "the supplement of paper PMC10307832",
  "assay_in_all_cases": "relative viability (nuclei count vs DMSO), 5 days (fraction); higher = more cells survive",
  "key": {"Carboplatin + Olaparib": {"compound": "C1CC(C1)(C(=O)O)C(=O)O.[NH2-].[NH2-].[Pt+2] [Carboplatin] + O=C(c1cc(Cc2n[nH]c(=O)c3ccccc23)ccc1F)N1CCN(C(=O)C2CC2)CC1 [Olaparib] (partner 8 µM)", "method_in_brief": "(§1)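 A single step with final 0.05% Triton X-100, 1% formaldehyde and 1 ug/ml Hoechst fixed the cells and stained nuclei 5 days after treatment. Lung cancer cell lines in 1536-well plates had been treated by pin tool the day after seeding with one drug alone or a fixed anchor-drug dose plus five library-drug doses (not always all listed) in √10 steps, and nuclei were counted on 4× images. Relative viability is the ratio of nuclei in treated wells to nuclei in vehicle wells, taken as the median of duplicate plates.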"}, "GSK126 + Crizotinib": {"compound": "CC[C@H](C)N1C=C(C2=C(C=C(C=C21)C3=CN=C(C=C3)N4CCNCC4)C(=O)NCC5=C(C=C(NC5=O)C)C)C [GSK126] + C[C@@H](Oc1cc(-c2cnn(C3CCNCC3)c2)cnc1N)c1c(Cl)ccc(F)c1Cl [Crizotinib] (partner 1 µM)", "method_in_brief": "as §1"}, "Carboplatin + Trametinib": {"compound": "C1CC(C1)(C(=O)O)C(=O)O.[NH2-].[NH2-].[Pt+2] [Carboplatin] + CC(=O)Nc1cccc(-n2c(=O)n(C3CC3)c(=O)c3c(Nc4ccc(I)cc4F)n(C)c(=O)c(C)c32)c1 [Trametinib] (partner 0.02 µM)", "method_in_brief": "as §1"}, "Carboplatin + Lapatinib": {"compound": "C1CC(C1)(C(=O)O)C(=O)O.[NH2-].[NH2-].[Pt+2] [Carboplatin] + CS(=O)(=O)CCNCc1ccc(-c2ccc3ncnc(Nc4ccc(OCc5cccc(F)c5)c(Cl)c4)c3c2)o1 [Lapatinib] (partner 2 µM)", "method_in_brief": "as §1"}},
  "data": [
    {"cell line": "UMC-11", "values": [
      {"measurement": "relative viability", "setting": "Carboplatin + Olaparib; first compound 0.08 µM", "result": 0.72},
      {"measurement": "relative viability", "setting": "Carboplatin + Olaparib; first compound 0.253 µM", "result": 0.573},
      {"measurement": "relative viability", "setting": "Carboplatin + Olaparib; first compound 0.8 µM", "result": 0.433},
      {"measurement": "relative viability", "setting": "Carboplatin + Olaparib; first compound 2.53 µM", "result": 0.381},
      {"measurement": "relative viability", "setting": "Carboplatin + Olaparib; first compound 8 µM", "result": 0.345},
      {"measurement": "relative viability", "setting": "GSK126 + Crizotinib; first compound 0.08 µM", "result": 0.723},
      {"measurement": "relative viability", "setting": "GSK126 + Crizotinib; first compound 0.253 µM", "result": 0.689},
      {"measurement": "relative viability", "setting": "GSK126 + Crizotinib; first compound 0.8 µM", "result": 0.604},
      {"measurement": "relative viability", "setting": "GSK126 + Crizotinib; first compound 2.53 µM", "result": 0.523},
      {"measurement": "relative viability", "setting": "GSK126 + Crizotinib; first compound 8 µM", "result": 0.525},
      {"measurement": "relative viability", "setting": "Carboplatin + Trametinib; first compound 0.08 µM", "result": 0.632},
      {"measurement": "relative viability", "setting": "Carboplatin + Trametinib; first compound 0.253 µM", "result": 0.706},
      {"measurement": "relative viability", "setting": "Carboplatin + Trametinib; first compound 0.8 µM", "result": 0.738},
      {"measurement": "relative viability", "setting": "Carboplatin + Trametinib; first compound 2.53 µM", "result": 0.929},
      {"measurement": "relative viability", "setting": "Carboplatin + Trametinib; first compound 8 µM", "result": 0.532},
      {"measurement": "relative viability", "setting": "Carboplatin + Lapatinib; first compound 0.08 µM", "result": 1.01},
      {"measurement": "relative viability", "setting": "Carboplatin + Lapatinib; first compound 0.253 µM", "result": 0.941},
      {"measurement": "relative viability", "setting": "Carboplatin + Lapatinib; first compound 0.8 µM", "result": 1.07},
      {"measurement": "relative viability", "setting": "Carboplatin + Lapatinib; first compound 2.53 µM", "result": 1.04},
      {"measurement": "relative viability", "setting": "Carboplatin + Lapatinib; first compound 8 µM", "result": 0.847}
    ]}
  ]
}
